Test results as given in PMC5045383 (Oncotarget, 2016).

What was measured:
HL-60 (FLT3-wt) = experiment: Cell proliferation assay (CellTiter-Glo); type: cell-based, human; conditions: 72 hours
Protocol: (§1) Cells were grown in 96-well culture plates (3000/well). […] Cell proliferation was determined after 72 hours drug treatment. […] Cell viability was measured with the CellTiter–Glo assay (Promega, USA), according to the manufacturer's instructions, and luminescence was measured in a multi-label reader (Envision, PerkinElmer, USA). […] GI50 values were calculated using Prism 5.0 (GraphPad Software, San Diego, CA).

SKM-1 (FLT3-wt) = experiment: Cell proliferation assay (CellTiter-Glo); type: cell-based, human; conditions: 72 hours
Protocol: as §1

PF-382 (FLT3-wt) = experiment: cells; type: cell-based; conditions: 72 hours
Protocol: as §1

BaF3-FLT3-D835Y = experiment: Anti-proliferation, BaF3 isogenic cell lines; type: cell-based
Protocol: (§2) Cells were grown in 96-well culture plates (3000/well). […] Cell proliferation was determined after 72 hours drug treatment. […] Cell viability was measured with the CellTiter–Glo assay (Promega, USA), according to the manufacturer's instructions, and luminescence was measured in a multi-label reader (Envision, PerkinElmer, USA). Data were normalized to control groups (DMSO) and represented by the mean of three independent measurements with standard error < 20%. GI50 values were calculated using Prism 5.0 (GraphPad Software, San Diego, CA).
(§3) Retroviral constructs for BaF3-FLT3 mutants were made based on the pMSCVpuro (Clontech) backbone. For TEL-FLT3 vector, the first 1 kb of human TEL gene with an artificial myristoylation sequence ([…]) was cloned into pMSCVpuro retroviral vector, followed by a 3xFLAG tag sequence and a stop codon. Then the kinase domain coding sequence of FLT3 was inserted in-frame between TEL and 3× FLAG sequences. For full-length expression vectors, the coding sequences of FLT3 variants were directly cloned in pMSCVpuro vector with a 3X FLAG tag at the C-terminal end. All mutagenesis studies were performed using the QuikChange Site-Directed Mutagenesis Kit (Stratagene) following the manufacturer's instructions. Retrovirus was packaged in HEK293T cells by transfecting FLT3-containing MSCV vectors together with two helper plasmids, virus supernatants were harvested 48 hours after transfection and filtered before infection. Then BaF3 cells were infected with harvested virus supernatants using spinoculation protocol and stable cell lines were obtained by puromycin selection for 48 hours. The IL-3 concentrations in the culture medium were gradually withdrawn until cells were able to grow in the absence of IL-3.

BaF3-FLT3-ITD-D835Y = experiment: Anti-proliferation, BaF3 isogenic cell lines; type: cell-based
Protocol: as §2, §3

BaF3-FLT3-ITD-F691L = experiment: Anti-proliferation, BaF3 isogenic cell lines; type: cell-based
Protocol: as §2, §3

BaF3-FLT3-ITD = experiment: Anti-proliferation, BaF3 isogenic cell lines; type: cell-based
Protocol: as §2, §3

BaF3-TEL-FLT3-wt = experiment: Anti-proliferation, BaF3 isogenic cell lines; type: cell-based
Protocol: as §2, §3

HL-60 = experiment: Colony formation (clonogenic) assay; type: cell-based, human; conditions: HL-60, 15 days
Protocol: (§4) In brief, 1 mL of 3% agarose combined with 1 mL MOLM-13, MOLM-14, MV4-11, PF-382, U937, HL-60 growth media was used as the bottom agar in a 6-well plate. […] Cells were maintained in a humidified 5% CO2 incubator at 37°C for 15 days. On the 15th day, the numbers of colonies in each well were counted and each measurement was performed in triplicate.

MOLM13 = experiment: Colony formation (clonogenic) assay; type: cell-based, human; conditions: MOLM13, 15 days
Protocol: as §4

MOLM14 = experiment: Colony formation (clonogenic) assay; type: cell-based, human; conditions: MOLM14, 15 days
Protocol: as §4

MV4-11 = experiment: Colony formation (clonogenic) assay; type: cell-based, human; conditions: MV4-11, 15 days
Protocol: as §4

PF382 = experiment: Colony formation (clonogenic) assay; type: cell-based, human; conditions: PF382, 15 days
Protocol: as §4

U937 = experiment: Colony formation (clonogenic) assay; type: cell-based, human; conditions: U937, 15 days
Protocol: as §4

[1] = target: FLT3-ITD (ITD+kinase domain); experiment: ADP-Glo biochemical assay; conditions: ATP final 50 μM
Protocol: FLT3 wt/FLT3-ITD/FLT3-D835Y cytoplasmic fragment with his tag was cloned into baculovirus expression vector pFASTHT-A. The recombinant bacmid was transfected into SF9 by Cellfectin (Invitrogen). High titer viral stocks were obtained by two rounds of amplification of the virus. The protein was expressed by infecting SF9 cells with high titer viral stocks for 48 h. Cells were harvested and re-suspended in lysis buffer (50 mM Tris pH 7.5, 150 mM NaCl, and 1 mM PMSF). The cells were lysed by ultra sonication and the cell debris was removed by ultracentrifugation. The supernatant was incubated with Ni-affinity beads (GE). The beads were then washed by lysis buffer containing 50–250 mM imidazole. The elute was loaded to superdex 75. The protein was concentrated to 1 mg/ml and aliquots were frozen and stored at −80°C. The protein was used for ADP-Glo™ kinase assay.
The reaction in each tube was started immediately by adding ATP and kept going for an hour under 37°C. After the tube cooled for 5 minutes at room temperature, 5 μL solvent reactions were carried out in a 384-well plate. […] At the end, 10 μL of kinase detection reagent was added into the well and incubated for 30 minutes to produce a luminescence signal. Luminescence signal was measured with an automated plate reader (Perkin-Elmer Envision) and each measurement was performed in triplicate.

MOLM-14 xenograft tumor = MOLM-14 xenograft tumor model; type: in vivo, Balb/c-nu mice; conditions: daily oral gavage, MOLM14 xenograft
Excerpt: Five weeks old female Balb/c-nu mice were purchased from the Shanghai Experimental Center, Chinese Science Academy (Shanghai, China). All animals were housed in a specific pathogen-free facility and used according to the animal care regulations of Hefei Institutes of Physical Science Chinese Academy of Sciences. Prior to implantation, cells were harvested during exponential growth. 10 million MOLM-14 cells in 1640 were formulated as a 1:1 mixture with Matrigel (BD Biosciences) and injected into the subcutaneous space on the right flank of Balb/c-nu mice. Daily oral administration was initiated when MOLM-14 tumors had reached a size of 200 to 400 mm^3. Animals were then randomized into treatment groups of 10 mice each for efficacy studies. […] Tumor growth was measured daily after A674563 treatment. Tumor volumes were calculated as follows: tumor volume (mm^3) = [(W^2 × L)/2] in which width (W) is defined as the smaller of the two measurements and length (L) is defined as the larger of the two measurements.

FLT3-ITD kinase = target: FLT3-ITD kinase; design: method as in PMID 22037378; conditions: cited from earlier work

Cc1[nH]nc2ccc(-c3cncc(OC[C@@H](N)Cc4ccccc4)c3)cc12 [A674563]
GI50 (HL-60 (FLT3-wt)): 2600 nM
GI50 (SKM-1 (FLT3-wt)): 2000 nM
GI50 (PF-382 (FLT3-wt)): 2700 nM
GI50 (BaF3-FLT3-D835Y): 45 nM
GI50 (BaF3-FLT3-ITD-D835Y): 420 nM
GI50 (BaF3-FLT3-ITD-F691L): 430 nM
GI50 (BaF3-FLT3-ITD): 88 nM
GI50 (BaF3-TEL-FLT3-wt): 1000 nM
EC50 (HL-60): 387 nM
EC50 (MOLM13): 170 nM
EC50 (MOLM14): 61 nM
EC50 (MV4-11): 92 nM
EC50 (PF382): 861 nM
EC50 (U937): 505 nM
IC50 [1]: 134 nM
tumor growth inhibition (TGI) (MOLM-14 xenograft tumor; 25 mg/kg/d): 45%
tumor growth inhibition (TGI) (MOLM-14 xenograft tumor; 50 mg/kg/day): 78%
Kd (FLT3-ITD kinase): 83 nM
